According to PMC6379670, “An ultra-high affinity ligand of HIV-1 TAR reveals the RNA structure recognized by P-TEFb” (Nucleic Acids Research, 2018):
Where two headings read alike, the source gives them in different places. Non-standard residues stand in square brackets, D forms with d. Residues, ends and D or L forms follow the SMILES beside them. *: point of attachment. 5FAM = O=C1OC2(c3ccc(O)cc3Oc3cc(O)ccc32)c2ccc(C(=O)*)cc21

Key:
[1] = tested on: CD4+ T cells; format: cell-based; conditions: human CD4+ T-cells; 1 mg/ml peptide in the extracellular medium; percent of cells containing peptide by flow cytometry
Protocol: (§1) Frozen, de-identified human PBMCs (Allcells, Alameda, CA) were thawed and stimulated with 6 IU IL-2 (R&D Systems, Minneapolis, MN) and 10 μg/ml concanavalin A (ConA, MilliporeSigma, Billerica, MA) in RPMI. Six days post-thaw, CD4+ T cells were positively isolated using an EasySep Human CD4 positive selection kit in a RoboSep robot (#18052RF, Stemcell Technologies, Cambridge, MA). 2D10 Jurkat cells ([38]) were also grown in RPMI. L22 selectively labeled with 5/6-carboxyfluorescein was added at indicated concentrations at indicated time points prior to flow cytometry analysis as described above.
(§2) Fig. S4. Uptake of fluorescein-labeled L22. a). The turn residue, Lys6, of L22 was first selectively labeled with 5/6-carboxyfluorescein using NHS coupling chemistry and incubated with either CD4+ T cells (top) […]
(§3) containing peptide was analyzed by flow cytometry. b). 2D10 Jurkat cells were first stimulated with TNFα for 4hrs then incubated with L22-AF647 (red) for 30min prior to FISH staining for HIV TAR RNA (yellow), nuclear staining with DAPI (blue) and GFP expression dependent on transcription of HIV (green).
(§4) Panel I overlay all four stains, Panel II is L22-AF647 only; Panel III is L22-AF647 and TAR FISH, Panel IV L22-AF647 and GFP expression.
(§5) (1 picture or pasted object on this page, not shown here)

[2] = tested on: 2D10 Jurkat cells; format: cell-based; conditions: 1 mg/ml peptide in the extracellular medium, percent of cells containing peptide by flow cytometry
Protocol: as §1, §2, §3, §4, §5

[3] = tested on: JB186 (synthetic); test: EMSA
[4] = tested on: JB181 (synthetic); test: EMSA
[5] = tested on: JB184 (synthetic); test: EMSA
[6] = tested on: L22 (synthetic); test: EMSA
[7] = tested on: JB59 (synthetic); test: EMSA
[8] = tested on: JB190 (synthetic); test: EMSA
[9] = tested on: JB185 (synthetic); test: EMSA
[10] = tested on: JB58 (synthetic); test: EMSA
[11] = biological target: P-TEFb/Tat1:57/AFF4;JB181 (HIV-1 (Tat); human? (P-TEFb, AFF4);synthetic) (UniProt O60563+P50750+P04608+Q9UHB7); test: EMSA
[12] = tested on: Jurkat clone E4 (latent HIV provirus with LTR-driven GFP); test: Reactivation from latency; format: cell-based, HIV-1; conditions: E4 Jurkat cells, peptides 0.39-100 μM, TNFα 1 ng/ml, GFP by flow cytometry 24 h later, triplicate
Protocol: A 5 × 10^4 cells/well of Jurkat clone E4 (in RPMI ([38])) were added to a 96-well plate at the same time as a dilution series of JB181, cyclic L22 and linear L22 (0.39, 1.56, 6.25, 25, 50 and 100 μM) in triplicate. Four hours following peptide addition, tumor necrosis factor α (TNFα) (1 ng/ml, Peprotech, Rocky Hill, NJ) was added to stimulate HIV-1 transcription. Twenty-four hours later, the percentage of cells expressing GFP was determined by flow cytometry as described above.
Figure 3. (A) M7-luc cells were infected with the replication competent HIV-1 clone NLgNef at very low titer. Three days post-infection, GFP expression was measured by flow cytometry. […] (B) JB181 inhibits HIV-1 reactivation from latency. Tat-dependent expression of GFP is repressed in E4 Jurkat cells, which serve as a model of HIV latency. These cells were pre-incubated for 2 h with L22 (cyclic, green), L22 (linear, blue) or JB181 (cyclic, red) at concentrations 0.5–100 μM, then stimulated for reactivation by TNFα at 1ng/ml. Twenty-four hours later, reactivation as monitored by GFP expression was measured by flow cytometry. […] (C) Biochemical RT inhibition assays were conducted as described previously ([31]) for peptides JB59, JB60, JB181 and L50 along with AZT. (D) Competition EMSA comparing affinity of the P-TEFb/Tat1:57/AFF4 complex for wild-type HIV-TAR with or without JB181 pre-bound to TAR. […]

[13] = tested on: HIV-1 clone NLgNef in M7-luc cells; test: Spreading infection (inhibition of viral spread); format: cell-based; conditions: M7-luc cells infected with NLgNef
Protocol: A 5 × 10^6 5.25.EGFP.Luc.M7 cells (M7-luc, gift of N. Landau(36)) grown in Roswell Park Memorial Institute medium (RPMI) containing 25 mM 4-(2-hydroxyethyl)-1-piperazineethanesulfonic acid (HEPES) (GE Life Sciences, Pittsburgh, PA), 10% Fetal Bovine Serum (FBS) (Sigma, St. Louis, MO) and 100 μg/ml normocin (Invivogen, San Diego, CA) were infected with the HIV-1 strain NL43-GFP-IRES-Nef (NLgNef) that expresses Green Fluorescent Protein (GFP) and Nef on a bicistronic Nef messenger RNA (a gift of David Levy ([37])) at a low multiplicity of infection (<0.01 infectious units/cell). […] Forty-eight hours post peptide addition, the percentage of cells expressing GFP was determined by flow cytometry via BD Fortessa SORP (BD, Franklin Lakes, NJ). Flow cytometry data were analyzed using WinList 3D (Verity Software House, Topsham, ME). […]
To evaluate anti-viral potency, we tested compound JB181 for inhibition of viral spread (Figure 3A) by comparison with L22 and a linear peptide control (same sequence as L22 but not cyclized). […] Peptides were added 24 h post-infection and spread of infection determined after 72 h. […]
Figure 3. […] Three days post-infection, GFP expression was measured by flow cytometry. […] Twenty-four hours later, reactivation as monitored by GFP expression was measured by flow cytometry. […]

[14] = biological target: BIV TAR RNA; test: EMSA binding to BIV TAR; conditions: positional scanning library, Table S1
Protocol: (§6) Electro Mobility Shift Assays (EMSA) and 2-aminopurine fluorescence ([35]) were used to measure peptide binding. For EMSA, all RNAs were 5′-dephosphorylated ([25],[26]) and 5′-rephosphorylated using T4 Polynucleotide Kinase (PNK); shifts were performed and analyzed as previously described ([14]). The P-TEFb/Tat1:57/AFF4 binding assays were run as described ([11]), with protein samples generously donated by Drs Ursula Schulze-Gahmen and James Hurley, but binding buffers contained 250× fold excess yeast tRNA. JB181-bound samples were prepared with 3× excess labeled HIV-TAR prior to titration with the pre-formed P-TEFb/Tat1:57/AFF4 complex.
(§7) Fig. S1. a) HIV-1 TAR, BIV TAR and 7SK-SL4 RNAs have similar secondary structures, but the JB181 peptide discriminates between them. […]
(§8) tightly than BIV TAR (3.3 nM) or 7SK (>3 μM) RNAs. b) EMSA of representative JB-peptides with 32P radiolabeled HIV-1 TAR RNA ([RNA]=75pM). The peptide concentration increases from left to right, as indicated. The dissociation constant can be estimated by the peptide concentration where there is an approximate 1:1 ratio (as established by visual inspection) between free RNA and complex, since the RNA concentration is much lower than the KD.
as §5

[15] = biological target: HIV-1 TAR RNA; format: binding; conditions: EMSA, positional scanning library, Table S1
Protocol: as §6, §7, §8, §5

[16] = tested on: JB181 (synthetic); test: 2-aminopurine fluorescence; conditions: C24 replaced by 2-aminopurine
[17] = biological target: P-TEFb/Tat1:57/AFF4 (HIV-1 (Tat); (P-TEFb, AFF4), UniProt O60563;P50750;P04608;Q9UHB7 1-264;1-330;1-57;2-73); test: EMSA; 250-fold excess yeast tRNA; RNA 100 pM; conditions: protein: recombinant; copies: 1;1;1;1; label: 5'-32P; hairpin with UCU bulge
[18] = with tRNA, read-out: Kd (nM) w/tRNA
[19] = without tRNA, read-out: Kd (nM) no tRNA

CC[C@H](C)[C@@H]1NC(=O)[C@H](CCCNC(=N)N)NC(=O)[C@H](CCCNC(=N)N)NC(=O)CNC(=O)[C@H](CCCCNC(=O)c2ccc3c(c2)C(=O)OC32c3ccc(O)cc3Oc3cc(O)ccc32)NC(=O)[C@H](CCCNC(=N)N)NC(=O)[C@H]([C@@H](C)O)NC(=O)[C@H](CCCNC(=N)N)NC(=O)[C@H](C(C)C)NC(=O)[C@H](CCCNC(=N)N)NC(=O)[C@@H]2CCCN2C(=O)[C@H]2CCCN2C(=O)[C@H]([C@@H](C)CC)NC(=O)[C@H](CCCNC(=N)N)NC1=O [fluorescein-labeled L22] (cyclo(RVRTRK(5FAM)GRRIRI[dP]P))
uptake (in words) [1]: good uptake
uptake (in words) [2]: good uptake

GGCAGAUCUGAGCCUGGGAGCUCUCUGCC [HIV-1 TAR]
Kd [3]: 1.2 nM
Kd [4]: < 0.18 nM
Kd [5]: > 250 nM
Kd [6]: 30 nM
Kd [7]: 1 nM
Kd [8]: 1.6 nM
Kd [9]: 0.5 nM
Kd [10]: 3 nM
Kd [11]: 17 nM

CC[C@H](C)[C@@H]1NC(=O)[C@H](CCCNC(=N)N)NC(=O)[C@H](CCCNC(=N)N)NC(=O)CNC(=O)[C@H](CCCCN)NC(=O)[C@H](CCCNC(=N)N)NC(=O)[C@H]([C@@H](C)O)NC(=O)[C@H](CCCNC(=N)N)NC(=O)[C@H](C(C)C)NC(=O)[C@H](CCCNC(=N)N)NC(=O)[C@@H]2CCCN2C(=O)[C@H]2CCCN2C(=O)[C@H]([C@@H](C)CC)NC(=O)[C@H](CCCNC(=N)N)NC1=O [Peptide L22] (cyclo(RVRTRKGRRIRI[dP]P))
inhibition of HIV-1 reactivation from latency (in words) [12]: inhibit at similar levels
inhibition of HIV-1 reactivation from latency (in words) ([12]; listed as cyclic L22): blocked reactivation
reduction of infection compared to no peptide controls ([13]; peptides 12.5 to 100 μM added 24 h post-infection, % GFP-expressing cells by flow cytometry, triplicate): > 50%
inhibition of viral replication and spread (in words) ([13]; peptides 12.5 to 100 μM, GFP by flow cytometry): blocked replication and spread

CC[C@H](C)[C@@H]1NC(=O)[C@H](CCCNC(=N)N)NC(=O)[C@H](CCCNC(=N)N)NC(=O)CNC(=O)[C@H](CCCCN)NC(=O)[C@H](CCCNC(=N)N)NC(=O)[C@H]([C@@H](C)O)NC(=O)[C@H](CCCNC(=N)N)NC(=O)[C@H](C(C)C)NC(=O)[C@H](CCCNC(=N)N)NC(=O)[C@@H]2CCCN2C(=O)[C@H]2CCCN2C(=O)[C@H](CC(C)C)NC(=O)[C@H](CCCNC(=N)N)NC1=O [JB-85] (cyclo(RVRTRKGRRIRL[dP]P))
Kd [14]: 1 nM
Kd [15, 18]: 50 nM
Kd [15, 19]: 5 nM

CC[C@H](C)[C@@H]1NC(=O)[C@H](CCCNC(=N)N)NC(=O)[C@H](CCCNC(=N)N)NC(=O)CNC(=O)[C@H](CCCCN)NC(=O)[C@H](CCCNC(=N)N)NC(=O)[C@H]([C@@H](C)O)NC(=O)[C@H](CCCNC(=N)N)NC(=O)[C@H](CC(N)=O)NC(=O)[C@H](CCCNC(=N)N)NC(=O)[C@@H]2CCCN2C(=O)[C@H]2CCCN2C(=O)[C@H]([C@@H](C)CC)NC(=O)[C@H](CCCNC(=N)N)NC1=O [JB-63] (cyclo(RNRTRKGRRIRI[dP]P))
Kd [14]: < 1 nM
Kd [15, 18]: 100 nM
Kd [15, 19]: 1 nM

CC[C@H](C)[C@@H]1NC(=O)[C@H](CCCNC(=N)N)NC(=O)[C@H](CCCNC(=N)N)NC(=O)CNC(=O)[C@H](CCCCN)NC(=O)[C@H](CCCNC(=N)N)NC(=O)[C@H]([C@@H](C)O)NC(=O)[C@H](CCCNC(=N)N)NC(=O)[C@H](C(C)C)NC(=O)[C@H](CCCNC(=N)N)NC(=O)[C@@H]2CCCN2C(=O)[C@H]2CCCN2C(=O)[C@H](C(C)C)NC(=O)[C@H](CCCNC(=N)N)NC1=O [JB-84] (cyclo(RVRTRKGRRIRV[dP]P))
Kd [14]: 1 nM
Kd [15, 18]: 50 nM
Kd [15, 19]: 1 nM

CC[C@H](C)[C@@H]1NC(=O)[C@H](CCCNC(=N)N)NC(=O)[C@H](CCCNC(=N)N)NC(=O)CNC(=O)[C@H](CCCCN)NC(=O)[C@H](CCCNC(=N)N)NC(=O)[C@H]([C@@H](C)O)NC(=O)[C@H](CCCNC(=N)N)NC(=O)[C@H](C(C)C)NC(=O)[C@H](CCCCN)NC(=O)[C@@H]2CCCN2C(=O)[C@H]2CCCN2C(=O)[C@H]([C@@H](C)CC)NC(=O)[C@H](CCCNC(=N)N)NC1=O [JB-60] (cyclo(KVRTRKGRRIRI[dP]P))
Kd [14]: > 5000 nM
Kd [15, 18]: 300 nM
Kd [15, 19]: 3 nM

HIV-1 TAR C24 2-aminopurine
Kd [16]: 0.028 nM

GGCAGAUCUGAGCCUGGGAGCUCUCUGCC (structured_RNA) [HIV-1 TAR]
Kd [17]: 9 ± 4 nM
